Reference: patent publication US20140335251A1, “ANTIFUNGAL FLAVORING COMPOSITIONS” (FIRMENICH SA, priority 2011, published 2014)

What was measured:
Format in all cases: cell-based
each of the tested fungi = test: Growth inhibition, summary over all tested strains; details: even at 75 ppm; strains of Tables 3-4 or 9-10
Experimental: (§1) A 105 g/L solution of sucrose in water at pH 5±0.2 was prepared. The sucrose solution was autoclaved at 121° C. for 15 minutes and the pH was re-checked to ensure it remained within the range.
(§2) Test samples were then prepared in microtiter plates. An amount of 100 μL of sucrose solution prepared above was mixed with an inoculum of 20 μL of one fungal strain, so as to achieve a microbial level comprised between 10^2 and 10^3 cfu/mL.
(§3) Composition A was then added to the microtiter plate. Dilutions were prepared in the microtiter plate for each mixture of sucrose solution and inoculum to afford final concentrations of 75 ppm and 125 ppm of Composition A. One well for each mixture of sucrose solution and inoculum was kept free of Composition A, to serve as a control.
(§4) The microtiter plates were then stored in a standard 25° C. incubator under aerobic conditions.
(§5) The optical density (OD) of each sample was measured after 21 days of incubation using a Bio-Tek Synergy™ HT Multi-Mode Microplate Reader (from Labtech International, UK). The wavelength was set to 380 nm for yeast strains and to 500 nm for mould strains.
(§6) All tests were done in triplicate to ensure statistical relevance of the results obtained.
(§7) 2-Methylhexanoic acid, geranic acid and sorbic acid were separately tested for their antifungal properties using the method described in Example 1 for evaluation of Composition A, except that dilutions were prepared in the microtiter plate for each mixture of sucrose solution and inoculum to afford final concentrations of 25 ppm, 50 ppm and 75 ppm of the tested ingredient.
Composition B was then added to the microtiter plate.

[1] = test system: Zygosaccharomyces bailii (DSM 70492); test: Growth inhibition in sucrose solution pH 5, OD after 21 days; details: for Antifungal activity: pH 5, 21 days at 25° C., OD 380 nm
Excerpt: The term “effective” when used to describe the capacity of a composition to inhibit growth of a yeast or mould strain is defined as the ability of such composition to inhibit growth of the strain in a growth medium consisting of a 105 g/L sucrose solution with an initial inoculum of 10^2-10^3 cfu/mL of such yeast or mould strain, so that the average optical density of the growth medium, as measured at 380 nm for yeast strains and at 500 nm for mould strains, is maintained below 0.2 after 21 days of culture at 25° C. under aerobic conditions. The growth medium of which the optical density is measured consists of the growth medium as it is at the end of the 21 days growth period. It therefore consists of the growth medium (sucrose solution at 105 g/L), together with the organisms which were able to grow during the 21 days culture period and the composition of the invention. For the purposes of the present invention, growth inhibition activity of a given compound against one of the above mentioned strains is measured as follows: A 105 g/L solution of sucrose in water is prepared. Preferably, the sucrose solution is at pH 3±0.2 or at pH 5±0.2, in which case the sucrose solution is more preferably autoclaved at 121° C. for 15 minutes and the pH is re-checked to ensure it remains within the required range. Test samples are prepared in a microtiter plate comprising 100 μL of one of the sucrose solutions prepared above, together with an initial inoculum of the fungal strain of which growth is intended to be inhibited, so as to achieve a microbial level comprised between 10^2 and 10^3 cfu/mL. The composition of which the antifungal activity is intended to be evaluated is then added to the microtiter plate. […] The microtiter plates are then stored in a standard 25° C. incubator under aerobic conditions. The optical density (OD) of each sample is measured just after addition of the composition (control) and after 21 days of incubation. The OD is measured at 380 nm for yeast strains and at 500 nm for mould strains. All tests are done in triplicate to ensure statistical relevance of the results obtained. Growth inhibition of a particular strain by an ingredient at a particular concentration is given if the OD measured after 21 days of culture in these conditions is below 0.2. A 105 g/L solution of sucrose in water at pH 5±0.2 was prepared. The sucrose solution was autoclaved at 121° C. for 15 minutes and the pH was re-checked to ensure it remained within the range. Test samples were then prepared in microtiter plates. […] Composition A was then added to the microtiter plate. […] One well for each mixture of sucrose solution and inoculum was kept free of Composition A, to serve as a control. The microtiter plates were then stored in a standard 25° C. incubator under aerobic conditions. The optical density (OD) of each sample was measured after 21 days of incubation using a Bio-Tek Synergy™ HT Multi-Mode Microplate Reader (from Labtech International, UK). The wavelength was set to 380 nm for yeast strains and to 500 nm for mould strains. All tests were done in triplicate to ensure statistical relevance of the results obtained.

[2] = test system: Pichia anomala (DSM 70783); test: as above; details: for Antifungal activity: pH 5, 21 days at 25° C.; for concentration at which active as single ingredient: sucrose solution pH 5, 21 days, tested at 25, 50, 75 ppm
Excerpt: (§8) The term “effective” when used to describe the capacity of a composition to inhibit growth of a yeast or mould strain is defined as the ability of such composition to inhibit growth of the strain in a growth medium consisting of a 105 g/L sucrose solution with an initial inoculum of 10^2-10^3 cfu/mL of such yeast or mould strain, so that the average optical density of the growth medium, as measured at 380 nm for yeast strains and at 500 nm for mould strains, is maintained below 0.2 after 21 days of culture at 25° C. under aerobic conditions. The growth medium of which the optical density is measured consists of the growth medium as it is at the end of the 21 days growth period.
(§9) For the purposes of the present invention, growth inhibition activity of a given compound against one of the above mentioned strains is measured as follows:
(§10) A 105 g/L solution of sucrose in water is prepared. Preferably, the sucrose solution is at pH 3±0.2 or at pH 5±0.2, in which case the sucrose solution is more preferably autoclaved at 121° C. for 15 minutes and the pH is re-checked to ensure it remains within the required range.
(§11) Test samples are prepared in a microtiter plate comprising 100 μL of one of the sucrose solutions prepared above, together with an initial inoculum of the fungal strain of which growth is intended to be inhibited, so as to achieve a microbial level comprised between 10^2 and 10^3 cfu/mL.
(§12) The composition of which the antifungal activity is intended to be evaluated is then added to the microtiter plate. Dilutions of the tested composition in each test sample are prepared to afford the desired final concentration. The microtiter plates are then stored in a standard 25° C. incubator under aerobic conditions.
(§13) The optical density (OD) of each sample is measured just after addition of the composition (control) and after 21 days of incubation. The OD is measured at 380 nm for yeast strains and at 500 nm for mould strains.
(§14) All tests are done in triplicate to ensure statistical relevance of the results obtained.
(§15) Growth inhibition of a particular strain by an ingredient at a particular concentration is given if the OD measured after 21 days of culture in these conditions is below 0.2.
as §1, §2, §3, §4, §5, §6
as §7, with “ingredient. […]” for “ingredient.”

[3] = test system: Pichia membranaefaciens (DSM 70369); test: as above; details: for Antifungal activity: pH 5, 21 days at 25° C.; for concentration at which active as single ingredient: sucrose solution pH 5, 21 days, tested at 25, 50, 75 ppm
Excerpt: as §8, §9, §10, §11, §12, §13, §14, §15, §1, §2, §3, §4, §5, §6
as §7, with “ingredient. […]” for “ingredient.”

[4] = 75 ppm, OD 380 nm (Examples 3-4)

SMILES | antifungal activity as single ingredient against tested strains (each of the tested fungi) | Antifungal activity ([1]; 25 ppm) | Antifungal activity ([1]; 50 ppm) | Antifungal activity ([1]; 75 ppm) | Antifungal activity ([2]; 25 ppm, OD 380 nm) | Antifungal activity ([2]; 50 ppm, OD 380 nm) | Antifungal activity ([2]; 75 ppm, OD 380 nm) | Antifungal activity ([3]; 25 ppm, OD 380 nm) | Antifungal activity ([3]; 50 ppm, OD 380 nm) | Antifungal activity ([3]; 75 ppm, OD 380 nm) | Antifungal activity ([2]; 25 ppm, OD 380 nm (Example 4)) | Antifungal activity ([2]; 50 ppm, OD 380 nm (Example 4)) | Antifungal activity [2, 4] | Antifungal activity ([3]; 25 ppm, OD 380 nm (Example 4)) | Antifungal activity ([3]; 50 ppm, OD 380 nm (Example 4)) | Antifungal activity [3, 4] | concentration at which active as single ingredient ([1]; sucrose solution pH 5, 21 days, tested at 25, 50, 75 ppm) [ppm] | concentration at which active as single ingredient [2] [ppm] | concentration at which active as single ingredient [3] [ppm]
CCCCC(C)C(=O)O (centres unmarked) [2-Methylhexanoic acid] | inactive | I (Letter I (for Inactive) is used when the measured OD was of at least 0.2) | I (Letter I (for Inactive) is used when the measured OD was of at least 0.2) | I (Letter I (for Inactive) is used when the measured OD was of at least 0.2) | I (Letter I (for Inactive) is used when the measured OD was of at least 0.2) | I (Letter I (for Inactive) is used when the measured OD was of at least 0.2) | I (Letter I (for Inactive) is used when the measured OD was of at least 0.2) | I (Letter I (for Inactive) is used when the measured OD was of at least 0.2) | I (Letter I (for Inactive) is used when the measured OD was of at least 0.2) | I (Letter I (for Inactive) is used when the measured OD was of at least 0.2) | – | – | – | – | – | – | – | – | –
CC(C)=CCC/C(C)=C/C(=O)O [Geranic acid] | inactive | I (Letter I (for Inactive) is used when the measured OD was of at least 0.2) | I (Letter I (for Inactive) is used when the measured OD was of at least 0.2) | I (Letter I (for Inactive) is used when the measured OD was of at least 0.2) | I (Letter I (for Inactive) is used when the measured OD was of at least 0.2) | I (Letter I (for Inactive) is used when the measured OD was of at least 0.2) | I (Letter I (for Inactive) is used when the measured OD was of at least 0.2) | I (Letter I (for Inactive) is used when the measured OD was of at least 0.2) | I (Letter I (for Inactive) is used when the measured OD was of at least 0.2) | I (Letter I (for Inactive) is used when the measured OD was of at least 0.2) | – | – | – | – | – | – | – | – | –
CCC(=O)O [Propanoic acid] | inactive | – | – | – | – | – | – | – | – | – | I (Letter I (for Inactive) is used when the measured OD was of at least 0.2) | I (Letter I (for Inactive) is used when the measured OD was of at least 0.2) | I (Letter I (for Inactive) is used when the measured OD was of at least 0.2) | I (Letter I (for Inactive) is used when the measured OD was of at least 0.2) | I (Letter I (for Inactive) is used when the measured OD was of at least 0.2) | I (Letter I (for Inactive) is used when the measured OD was of at least 0.2) | – | – | –
C/C=C/C=C/C(=O)O [Sorbic acid] | – | I (Letter I (for Inactive) is used when the measured OD was of at least 0.2) | I (Letter I (for Inactive) is used when the measured OD was of at least 0.2) | A (Letter A (for Active) is indicated when the measured OD was below 0.2) | I (Letter I (for Inactive) is used when the measured OD was of at least 0.2) | A (Letter A (for Active) is indicated when the measured OD was below 0.2) | A (Letter A (for Active) is indicated when the measured OD was below 0.2) | I (Letter I (for Inactive) is used when the measured OD was of at least 0.2) | I (Letter I (for Inactive) is used when the measured OD was of at least 0.2) | A (Letter A (for Active) is indicated when the measured OD was below 0.2) | – | – | – | – | – | – | 75 | 50 | 75
O=C(O)c1ccccc1 [benzoic acid] | – | – | – | – | – | – | – | – | – | – | I (Letter I (for Inactive) is used when the measured OD was of at least 0.2) | A (Letter A (for Active) is indicated when the measured OD was below 0.2) | A (Letter A (for Active) is indicated when the measured OD was below 0.2) | I (Letter I (for Inactive) is used when the measured OD was of at least 0.2) | I (Letter I (for Inactive) is used when the measured OD was of at least 0.2) | A (Letter A (for Active) is indicated when the measured OD was below 0.2) | – | 50 | 75
